Experimental data reported in patent US12528788B2, “Pesticidally active benzene- and azine-amide compounds” (SYNGENTA CROP PROTECTION AG, priority 2018, dated 2026).

Key:
Assay type in all cases: in vivo
Diabrotica balteata = assay: Example B1: Diabrotica balteata (corn root worm), maize sprouts sprayed, L2 larvae; conditions: 96 h, application rate of 200 ppm, 4 days after infestation, L2 larvae on maize sprouts, read-out: control in at least one of the two categories (mortality or growth inhibition)
Description: Example B1: Diabrotica balteata (Corn Root Worm)
Maize sprouts placed onto an agar layer in 24-well microtiter plates were treated with aqueous test solutions prepared from 10′000 ppm DMSO stock solutions by spraying. After drying, the plates were infested with L2 larvae (6 to 10 per well). The samples were assessed for mortality and growth inhibition in comparison to untreated samples 4 days after infestation.

Plutella xylostella [1] = assay: Example B14: Plutella xylostella (diamondback moth), 96-well artificial diet; conditions: 216 h, application rate of 500 ppm, 9 days after infestation
Description: Example B14: Plutella xylostella (Diamondback Moth)
96-well microtiter plates containing artificial diet were treated with aqueous test solutions, prepared from 10′000 ppm DMSO stock solutions, by a liquid handling robot. After drying, eggs (˜30 per well) were infested onto a netted lid which was suspended above the diet. The eggs hatch and L1 larvae move down to the diet. The samples were assessed for mortality 9 days after infestation.

Plutella xylostella [2] = assay: Example B5: Plutella xylostella (diamond back moth), artificial diet, 24-well, eggs; conditions: 192 h, application rate of 200 ppm, 8 days after infestation, read-out: control in at least one of the two categories (mortality or growth inhibition)
Description: Example B5: Plutella xylostella (Diamond Back Moth)
24-well microtiter plates with artificial diet were treated with aqueous test solutions prepared from 10′000 ppm DMSO stock solutions by pipetting. After drying, Plutella eggs were pipetted through a plastic stencil onto a gel blotting paper and the plate was closed with it. The samples were assessed for mortality and growth inhibition in comparison to untreated samples 8 days after infestation.

Spodoptera littoralis = assay: Example B9: Spodoptera littoralis (Egyptian cotton leaf worm), cotton leaf discs sprayed, L1 larvae; conditions: foliar, 72 h, application rate of 200 ppm, 3 days after infestation, read-out: control in at least one of the three categories (mortality, anti-feedant effect or growth inhibition)
Chilo suppressalis = assay: Example B4: Chilo suppressalis (striped rice stemborer), artificial diet, L2 larvae; conditions: 144 h, application rate of 200 ppm, 6 days after infestation, read-out: control in at least one of the three categories (mortality, anti-feedant effect or growth inhibition)
Description: Example B4: Chilo suppressalis (Striped Rice Stemborer)
24-well microtiter plates with artificial diet were treated with aqueous test solutions prepared from 10′000 ppm DMSO stock solutions by pipetting. After drying, the plates were infested with L2 larvae (6-8 per well). The samples were assessed for mortality, anti-feeding effect, and growth inhibition in comparison to untreated samples 6 days after infestation. Control of Chilo suppressalis by a test sample is given when at least one of the categories mortality, anti-feedant effect, and growth inhibition is higher than the untreated sample.

Myzus persicae = assay: Example B13: Myzus persicae (green peach aphid), 96-well sucrose solution; conditions: 120 h, application rate of 50 ppm, 5 days after infestation
Source text: Example B13: Myzus persicae (Green Peach Aphid)
Test compounds prepared from 10′000 ppm DMSO stock solutions were applied by a liquid handling robot into 96-well microtiter plates and mixed with a sucrose solution. Parafilm was stretched over the 96-well microtiter plate and a plastic stencil with 96 holes was placed onto the plate. Aphids were sieved into the wells directly onto the Parafilm. The infested plates were closed with a gel blotting card and a second plastic stencil and then turned upside down. The samples were assessed for mortality 5 days after infestation.

Row | SMILES | percent control (mortality or growth inhibition) at 200 ppm (Diabrotica balteata) | mortality at 500 ppm (Plutella xylostella [1]) | percent control (mortality or growth inhibition) at 200 ppm (Plutella xylostella [2]) | percent control (mortality, anti-feedant effect or growth inhibition) at 200 ppm (Spodoptera littoralis) | percent control (mortality, anti-feedant effect or growth inhibition) at 200 ppm (Chilo suppressalis) | mortality at 50 ppm (Myzus persicae)
1 | CC(c1cccnc1-c1ncccn1)N(CC1CC1)C(=O)c1cc(C(F)(F)F)cc(C(F)(F)F)c1 (stereo not drawn) [Compound P1, N-(cyclopropylmethyl)-N-[1-(2-pyrimidin-2-yl-3-pyridyl)ethyl]-3,5-bis(trifluoromethyl)benzamide] | ≥ 80% | ≥ 80% |  |  |  | 
2 | CC(c1cnccc1-c1ncccn1)N(CC1CC1)C(=O)c1cc(C(F)(F)F)cc(C(F)(F)F)c1 (stereo not drawn) [Compound P2, N-(cyclopropylmethyl)-N-[1-(4-pyrimidin-2-yl-3-pyridyl)ethyl]-3,5-bis(trifluoromethyl)benzamide] |  | ≥ 80% | ≥ 80% |  |  | 
3 | CC(c1ncccc1-c1ncccn1)N(CC1CC1)C(=O)c1cc(C(F)(F)F)cc(C(F)(F)F)c1 (stereo not drawn) [Compound P3, N-(cyclopropylmethyl)-N-[1-(3-pyrimidin-2-yl-2-pyridyl)ethyl]-3,5-bis(trifluoromethyl)benzamide] | ≥ 80% | ≥ 80% | ≥ 80% | ≥ 80% |  | 
4 | CC(c1ncncc1-c1ncccn1)N(CC1CC1)C(=O)c1cc(C(F)(F)F)cc(C(F)(F)F)c1 (stereo not drawn) [Compound P6, N-(cyclopropylmethyl)-N-[1-(5-pyrimidin-2-ylpyrimidin-4-yl)ethyl]-3,5-bis(trifluoromethyl)benzamide] | ≥ 80% | ≥ 80% | ≥ 80% |  |  | 
5 | CC(c1nccnc1-c1ccccn1)N(CC1CC1)C(=O)c1cc(C(F)(F)F)cc(C(F)(F)F)c1 (stereo not drawn) [Compound P7, N-(cyclopropylmethyl)-N-[1-[3-(2-pyridyl)pyrazin-2-yl]ethyl]-3,5-bis(trifluoromethyl)benzamide] | ≥ 80% | ≥ 80% | ≥ 80% | ≥ 80% |  | 
6 | CC(c1cnc(Cl)cc1-c1ncccn1)N(CC1CC1)C(=O)c1cc(C(F)(F)F)cc(C(F)(F)F)c1 (stereo not drawn) [Compound P8, N-[1-(6-chloro-4-pyrimidin-2-yl-3-pyridyl)ethyl]-N-(cyclopropylmethyl)-3,5-bis(trifluoromethyl)benzamide] |  | ≥ 80% | ≥ 80% |  |  | 
7 | CC(c1nc(F)ccc1-c1ncccn1)N(CC1CC1)C(=O)c1cc(C(F)(F)F)cc(C(F)(F)F)c1 (stereo not drawn) [Compound P9, N-(cyclopropylmethyl)-N-[1-(6-fluoro-3-pyrimidin-2-yl-2-pyridyl)ethyl]-3,5-bis(trifluoromethyl)benzamide] | ≥ 80% | ≥ 80% | ≥ 80% | ≥ 80% |  | 
8 | CC(c1cnc(C(F)(F)F)cc1-c1ncccn1)N(CC1CC1)C(=O)c1cc(C(F)(F)F)cc(C(F)(F)F)c1 (stereo not drawn) [Compound P10, N-(cyclopropylmethyl)-N-[1-[4-pyrimidin-2-yl-6-(trifluoromethyl)-3-pyridyl]ethyl]-3,5-bis(trifluoromethyl)benzamide] |  | ≥ 80% | ≥ 80% | ≥ 80% |  | 
9 | CC(c1nccnc1-c1ccccn1)N(CC1CC1)C(=O)c1cc(Cl)cc(C(F)(F)F)c1 (stereo not drawn) [Compound P11, 3-chloro-N-(cyclopropylmethyl)-N-[1-[3-(2-pyridyl)pyrazin-2-yl]ethyl]-5-(trifluoromethyl)benzamide] | ≥ 80% | ≥ 80% | ≥ 80% | ≥ 80% |  | 
10 | CC(NC(=O)c1cc(C(F)(F)F)cc(C(F)(F)F)c1)c1nccnc1-c1ncccc1F (stereo not drawn) [Compound P13, N-[1-[3-(3-fluoro-2-pyridyl)pyrazin-2-yl]ethyl]-3,5-bis(trifluoromethyl)benzamide] | ≥ 80% |  | ≥ 80% | ≥ 80% | ≥ 80% | 
11 | CC(NC(=O)c1cc(C(F)(F)F)cc(C(F)(F)F)c1)c1nccnc1-c1ccccn1 (stereo not drawn) [Compound P25, N-[1-[3-(2-pyridyl)pyrazin-2-yl]ethyI]-3,5-bis(trifluoromethyl)benzamide] | ≥ 80% | ≥ 80% | ≥ 80% | ≥ 80% |  | ≥ 80%
12 | CC(c1ccccc1-c1ncccn1)N(CC1CC1)C(=O)c1cc(C(F)(F)F)cc(C(F)(F)F)c1 (stereo not drawn) [Compound P26, N-(cyclopropylmethyl)-N-[1-(2-pyrimidin-2-ylphenyl)ethyl]-3,5-bis(trifluoromethyl)benzamide] |  | ≥ 80% | ≥ 80% |  |  | 
13 | CC(c1ccccc1-c1ccccn1)N(CC1CC1)C(=O)c1cc(Cl)cc(C(F)(F)F)c1 (stereo not drawn) [Compound P27, 3-chloro-N-(cyclopropylmethyl)-N-[1-[2-(2-pyridyl)phenyl]ethyl]-5-(trifluoromethyl)benzamide] |  | ≥ 80% | ≥ 80% |  |  | 
14 | CC(c1ccccc1-c1ccccn1)N(CC1CC1)C(=O)c1cc(C(F)(F)F)cc(C(F)(F)F)c1 (stereo not drawn) [Compound P28, N-(cyclopropylmethyl)-N-[1-[2-(2-pyridyl)phenyl]ethyl]-3,5-bis(trifluoromethyl)benzamide] |  | ≥ 80% |  |  |  | 
15 | CC(NC(=O)c1cc(OCC(F)F)cc(C(F)(F)F)c1)c1nccnc1-c1ncc(C2CC2)cn1 (stereo not drawn) [Compound P32, N-[1-[3-(5-cyclopropylpyrimidin-2-yl)pyrazin-2-yl]ethyl]-3-(2,2-difluoroethoxy)-5-(trifluoromethyl)benzamide] |  |  | ≥ 80% | ≥ 80% | ≥ 80% | 
16 | CC(NC(=O)c1cc(OC(F)F)cc(C(F)(F)F)c1)c1nccnc1-c1ncc(C2CC2)cn1 (stereo not drawn) [Compound P33, N-[1-[3-(5-cyclopropylpyrimidin-2-yl)pyrazin-2-yl]ethyl]-3-(difluoromethoxy)-5-(trifluoromethyl)benzamide] | ≥ 80% |  | ≥ 80% | ≥ 80% | ≥ 80% | 
17 | CC(NC(=O)c1cc(OC(F)F)cc(C(F)(F)F)c1)c1nccnc1-c1ccc(F)cn1 (stereo not drawn) [Compound P35, 3-(difluoromethoxy)-N-[1-[3-(5-fluoro-2-pyridyl)pyrazin-2-yl]ethyl]-5-(trifluoromethyl)benzamide] |  |  | ≥ 80% |  |  | 
18 | CC(NC(=O)c1cc(C(F)(F)F)cc(C(F)(F)F)c1)c1nccnc1-c1ccc(Cl)cn1 (stereo not drawn) [Compound P36, N-[1-[3-(5-chloro-2-pyridyl)pyrazin-2-yl]ethyl]-3,5-bis(trifluoromethyl)benzamide] |  |  |  |  | ≥ 80% | 
